Here are results for 29 molecules from patent publication US20230091047A1 (priority 2019, published 2023).

Like-named read-outs stand apart in the source and are kept apart here.

In series [1] the test system is HepG2 cells. The series is described as follows: in vitro. It counts as cell-based. The procedure, abridged: (§1)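 Luminescent ATP quantitation served as the viability endpoint following a 3- or 4-day incubation with test compounds.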
Series [2] concerns HBV (HepG2.117 cell line, inducibly HBV producing). Nature of the series: Anti-HBV activity: intracellular HBV DNA by real-time PCR in HepG2.117 cells after 3 days of treatment. It counts as cell-based, hepatitis B virus. The procedure, abridged:
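Antiviral effect is expressed through intracellular HBV DNA levels, determined by real-time PCR with a virus-specific probe. These levels were measured after 3 days of treatment with compound dilutions, in HepG2.117 cells induced to replicate HBV.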
Background: In qPCR the cycle at which signal appears reflects the starting amount.

Series [3] can be described thus: in vitro. It counts as cell-based. The settings on record: human, HepG2 or HepG2.117 cells, ATPlite, mean value. Put shortly: as §1
On the technique in general: In ATP-based viability assays light output follows the ATP content of the culture.

The mark [4] stands for this setting: 3-days incubation (unmarked values), HepG2 or HepG2.117 cells, ATPlite, mean value, read-out: CC50 (μM, mean value).
Where [5] appears, read: HepG2.117 cells, 3 days of treatment, intracellular HBV DNA by real-time PCR; mean value; read-out: EC50 (μM, mean value).
The mark [6] stands for this setting: HepG2 or HepG2.117 cells, ATPlite, 3-days incubation (not marked with *), mean value, read-out: CC50 (μM, mean value).
The mark [7] stands for this setting: HepG2.117 cells, intracellular HBV DNA by real-time PCR, 3 days of treatment, mean value; read-out: EC50 (μM, mean value).
[8] abbreviates: Hepatitis B virus, HepG2.117, 72 h, HepG2.117 cells, intracellular HBV DNA by real-time PCR, 3 days of treatment, mean value; read-out: EC50 (μM, mean value).
The mark [9] stands for this setting: 3-days incubation (unmarked values).
[10] abbreviates: Hepatitis B virus, HepG2.117, 72 h, HepG2.117 cells, 3 days of treatment, intracellular HBV DNA by real-time PCR; mean value; read-out: EC50 (μM, mean value).
Setting [11] is: 3-days incubation (not marked with *).

As a reminder, the CC50 is the concentration giving 50% cytotoxicity. The term EC50 denotes the concentration needed to bring the measured effect to its halfway point. `COc1ccccc1-n1c(N[C@H](C)C(F)(F)F)nc2c(c1=O)CCN(C(=O)c1ccc(Cl)c(Cl)c1)C2` (single isomer, unassigned) [Compound C101b]: the CC50 in series [1] (setting [4]) was found to be 33.2 µM. For the same molecule, the concentration giving a half-maximal response (EC50) in series [2] (setting [5]) was determined as 9.59 µM.

`CNC(=O)c1ccc(-n2c(N[C@H](C)c3ccc(OC(F)F)cc3)nc3c(c2=O)C[C@@H](C)N(C(=O)c2ccc(Cl)c(Cl)c2)C3)cc1` [Compound C411b]: the cytotoxic concentration (CC50) in series [1] (setting [6]) worked out at 42.1 µM. For the same molecule, in series [2] (setting [7]), the EC50 was 0.07 µM.

Turning to `CC(C)Nc1nc2c(c(=O)n1-c1ccc(C(=O)NC3CC3)cc1Cl)C[C@@H](C)N(C(=O)c1ccc(Cl)c(C(F)(F)F)c1)C2` (single isomer, unassigned) [Compound C673b], the CC50 in series [1] (setting [6]) is > 50 µM. Moreover, in series [2] (setting [7]), the EC50 was 0.03 µM.

As for `CNC(=O)c1ccc(-n2c(NC(C)C)nc3c(c2=O)C[C@@H](C)N(C(=O)c2ccc(Cl)c(Cl)c2)C3)c(Cl)c1` (single isomer, unassigned) [Compound C293a], in series [1] (setting [4]), the CC50 was determined as 33.4 µM. Further, the concentration giving a half-maximal response (EC50) in series [2] (setting [5]) was 0.06 µM.

Consider `COc1ccccc1-n1c(NCc2ccc3c(c2)OCO3)nc2c(c1=O)CCN(C(=O)c1ccc(Cl)c(Cl)c1)C2` (single isomer, unassigned) [Compound C26a, 2-{[(2H-1,3-benzodioxol-5-yl)methyl]amino}-7-(3,4-dichlorobenzoyl)-3-(2-methoxyphenyl)-5,6,7,8-tetrahydropyrido[3,4-d]pyrimidin-4(3H)-one], for which, in series [1] (setting [4]), the CC50 is > 50 µM. In series [2] (setting [5]), the EC50 worked out at 1.42 µM.

In the case of `Cc1c[nH]c(-c2ccc(-n3c(NC(C)C)nc4c(c3=O)C[C@@H](C)N(C(=O)c3ccc(Cl)c(Cl)c3)C4)c(Cl)c2)n1` (single isomer, unassigned) [Compound C455b], in series [1] (setting [6]), the CC50 was > 50 µM. Also, in series [2] (setting [7]), the 50% effective concentration (EC50) was found to be 0.1 µM.

Take `CNC(=O)[C@H]1CC[C@@H](n2c(N[C@H](C)c3ccc(OC(F)(F)F)cc3)nc3c(c2=O)C[C@@H](C)N(C(=O)c2ccc(Cl)c(Cl)c2)C3)CC1` [Compound C636, (1R,4s)-4-((R)-7-(3,4-dichlorobenzoyl)-6-methyl-4-oxo-2-(((S)-1-(4-(trifluoromethoxy)phenyl)ethyl)amino)-5,6,7,8-tetrahydropyrido[3,4-d]pyrimidin-3(4H)-yl)-N-methylcyclohexane-1-carboxamide]: the CC50 in series [1] is > 35 µM. Also, the EC50 in series [2] (setting [7]) stood at 0.23 µM.

Regarding `CNC(=O)c1ccc(-n2c(NC(C)C)nc3c(c2=O)C[C@@H](C)N(C(=O)c2ccc(Cl)c(Cl)c2)C3)c(C(C)C)c1` (single isomer, unassigned) [Compound C420a], the 50% cytotoxic concentration (CC50) in series [1] (setting [6]) turned out to be 21.7 µM. For the same molecule, in series [2] (setting [7]), the concentration giving a half-maximal response (EC50) amounted to 0.72 µM.

On to `CNC(=O)c1ccc(-n2c(OC(C)C)nc3c(c2=O)C[C@@H](C)N(C(=O)c2ccc(Cl)c(Cl)c2)C3)c(Cl)c1` [Compound C403b], for which the CC50 in series [1] (setting [6]) was 31.1 µM. In addition, the EC50 in series [2] (setting [7]) was determined as 0.08 µM.

For the molecule `CC(C)Nc1nc2c(c(=O)n1-c1ccc(-c3nccn3C)cc1Cl)C[C@@H](C)N(C(=O)c1ccc(Cl)c(Cl)c1)C2` (single isomer, unassigned) [Compound C392b], in series [1] (setting [6]), the CC50 amounted to 26.7 µM. In addition, the EC50 in series [2] (setting [7]) came to 0.12 µM.

For `CNC(=O)c1ccc(-n2c(NC(C)C)nc3c(c2=O)C[C@@H](C)N(C(=O)c2ccc(Cl)c(C(F)(F)F)c2)C3)c(OC)c1` (single isomer, unassigned) [Compound C643a], the CC50 in series [1] (setting [6]) was > 50 µM. In addition, the EC50 in series [2] (setting [7]) was 0.04 µM.

`CNC(=O)c1ccc(-n2c(N[C@@H](C)C3CC3)nc3c(c2=O)C[C@@H](C)N(C(=O)c2ccc(Cl)c(Cl)c2)C3)c(Cl)c1` [Compound C387]: the CC50 in series [1] (setting [6]) amounted to 38 µM. The concentration giving a half-maximal response (EC50) in series [2] (setting [7]) turned out to be 0.06 µM.

Regarding `COc1ccc([C@H](C)Nc2nc3c(c(=O)n2-c2ccc(NC(C)=O)cc2)C[C@@H](C)N(C(=O)c2ccc(Cl)c(Cl)c2)C3)cc1` (single isomer, unassigned) [Compound C410a], the CC50 in series [1] (setting [6]) is > 50 µM. Moreover, the EC50 in series [2] (setting [7]) stood at 0.95 µM.

With `Cc1c[nH]c(-c2ccc(-n3c(NC(C)C)nc4c(c3=O)C[C@@H](C)N(C(=O)c3ccc(Cl)c(Cl)c3)C4)c(Cl)c2)n1` (single isomer, unassigned) [Compound C455a], in series [1] (setting [6]), the CC50 was 17.6 µM. For the same molecule, the EC50 in series [2] (setting [8]) was determined as 0.05 µM.

Turning to `COc1cc(C(=O)NC2CC2)ccc1-n1c(NC(C)C)nc2c(c1=O)C[C@@H](C)N(C(=O)c1ccc(Cl)c(C(F)(F)F)c1)C2` (single isomer, unassigned) [Compound C678b], the CC50 in series [1] (setting [6]) was found to be 44.1 µM. Besides, in series [2] (setting [7]), the concentration giving a half-maximal response (EC50) worked out at 0.04 µM.

As for `COc1ccccc1-n1c(NCc2ccc3c(c2)OCO3)nc2c(c1=O)CCN(C(=O)c1ccc(Cl)c(Cl)c1)C2` (single isomer, unassigned) [Compound C26b, 2-{[(2H-1,3-benzodioxol-5-yl)methyl]amino}-7-(3,4-dichlorobenzoyl)-3-(2-methoxyphenyl)-5,6,7,8-tetrahydropyrido[3,4-d]pyrimidin-4(3H)-one], in series [1] (setting [4]), the cytotoxic concentration (CC50) is > 50 µM. For the same molecule, in series [2] (setting [5]), the EC50 amounted to 1.04 µM.

Take `CC(C)Nc1nc2c(c(=O)n1-c1ccc(S(C)(=O)=O)cc1)C[C@@H](C)N(C(=O)c1ccc(Cl)c(Cl)c1)C2` [Compound C142, (6R)-7-(3,4-dichlorobenzoyl)-3-[4-(methanesulfonyl)phenyl]-6-methyl-2-[(propan-2-yl)amino]-5,6,7,8-tetrahydropyrido[3,4-d]pyrimidin-4(3H)-one]: the half-maximal cytotoxic concentration (CC50) in series [1] (setting [4]) is > 50 µM. Besides, the half-maximal effective concentration (EC50) in series [2] (setting [5]) worked out at 0.12 µM.

For the molecule `CNC(=O)c1ccc(-n2c(NC(C)C)nc3c(c2=O)C[C@@H](C)N(C(=O)c2ccc(Cl)c(Cl)c2)C3)c(C(F)(F)F)c1` (single isomer, unassigned) [Compound C340b], the cytotoxic concentration (CC50) in series [1] (setting [4]) was found to be 29.8 µM. In addition, the EC50 in series [2] (setting [5]) came out at 0.39 µM.

On to `CC(C)Nc1nc2c(c(=O)n1-c1ccc(S(C)(=O)=O)cc1)C[C@H](C)N(C(=O)c1ccc(Cl)c(Cl)c1)C2` [Compound C141, (6S)-7-(3,4-dichlorobenzoyl)-3-[4-(methanesulfonyl)phenyl]-6-methyl-2-[(propan-2-yl)amino]-5,6,7,8-tetrahydropyrido[3,4-d]pyrimidin-4(3H)-one], for which, in series [1] (setting [4]), the CC50 is > 50 µM.

Consider `CC(C)Nc1nc2c(c(=O)n1-c1ccc(-c3ncc[nH]3)cc1Cl)C[C@@H](C)N(C(=O)c1ccc(Cl)c(Cl)c1)C2` (single isomer, unassigned) [Compound C393b], for which the CC50 in series [1] (setting [6]) is 31.7 µM. Moreover, the EC50 in series [2] (setting [7]) was found to be 0.24 µM.

On to `Cc1cc(-n2cccn2)ccc1-n1c(NC(C)C)nc2c(c1=O)C[C@@H](C)N(C(=O)c1ccc(Cl)c(Cl)c1)C2` (single isomer, unassigned) [Compound C308b], for which, in series [1] (setting [4]), the CC50 is > 50 µM. For the same molecule, in series [2] (setting [5]), the concentration for a half-maximal effect (EC50) was determined as 0.16 µM.

In the case of `Cc1cc(-c2ncc[nH]2)ccc1-n1c(NC(C)C)nc2c(c1=O)C[C@@H](C)N(C(=O)c1ccc(Cl)c(Cl)c1)C2` (single isomer, unassigned) [Compound C399a], the cytotoxic concentration (CC50) in series [1] (setting [6]) was 27.7 µM. For the same molecule, the EC50 in series [2] (setting [7]) came out at 0.14 µM.

On to `CNC(=O)c1ccc(-n2c(NCc3nc(-c4ccccc4)n[nH]3)nc3c(c2=O)C[C@@H](C)N(C(=O)c2ccc(Cl)c(Cl)c2)C3)cc1` [Compound C538], for which, in series [1] (setting [6]), the cytotoxic concentration (CC50) is > 50 µM. Further, the half-maximal effective concentration (EC50) in series [2] (setting [7]) is 20.6 µM.

Turning to `COc1ccc(CNc2nc3c(c(=O)[nH]2)CCN(C(=O)c2ccc(Br)cc2)C3)cc1` [Compound C116, 7-(4-bromobenzoyl)-2-{[(4-methoxyphenyl)methyl]amino}-5,6,7,8-tetrahydropyrido[3,4-d]pyrimidin-4(3H)-one], in series [3] (setting [9]), half-maximal cytotoxicity (CC50 at 3 days) was put at 27.4 µM. In series [2] (setting [10]), the concentration for a half-maximal effect (EC50) amounted to 21.6 µM.

On to `CC(C)Nc1nc2c(c(=O)n1-c1ccc(S(C)(=O)=O)cc1)CCN(C(=O)c1cc3ccccc3o1)C2` [Compound C152, 7-(1-benzofuran-2-carbonyl)-3-[4-(methanesulfonyl)phenyl]-2-[(propan-2-yl)amino]-5,6,7,8-tetrahydropyrido[3,4-d]pyrimidin-4(3H)-one], for which the CC50 at 3 days in series [3] (setting [9]) is > 50 µM. Moreover, in series [2] (setting [10]), the half-maximal effective concentration (EC50) was 30.8 µM.

`COc1ccccc1-n1c(N(C)C)nc2c(c1=O)CCN(C(=O)c1ccc(Cl)c(Cl)c1)C2` [Compound C46, 7-(3,4-dichlorobenzoyl)-2-(dimethylamino)-3-(2-methoxyphenyl)-5,6,7,8-tetrahydropyrido[3,4-d]pyrimidin-4(3H)-one]: the CC50 at 3 days in series [3] (setting [9]) was > 50 µM. Also, the half-maximal effective concentration (EC50) in series [2] (setting [10]) turned out to be 6.49 µM.

Take `COc1ccc(CNc2nc3c(c(=O)n2-c2ccc(N4CCOCC4)cc2)CCN(C(=O)c2ccc(Cl)c(Cl)c2)C3)cc1` [Compound C128, 7-(3,4-dichlorobenzoyl)-2-{[(4-methoxyphenyl)methyl]amino}-3-[4-(morpholin-4-yl)phenyl]-5,6,7,8-tetrahydropyrido[3,4-d]pyrimidin-4(3H)-one]: in series [3] (setting [9]), the CC50 at 3 days was > 50 µM. For the same molecule, the EC50 in series [2] (setting [10]) is 1.06 µM.

In the case of `CNC(=O)c1ccc(-n2c(N[C@@H](C)c3ccc4[nH]ccc4c3)nc3c(c2=O)C[C@@H](C)N(C(=O)c2ccc(Cl)c(Cl)c2)C3)cc1` (single isomer, unassigned) [Compound C449b], in series [3] (setting [11]), the CC50 at 3 days is 46.4 µM. Moreover, the EC50 in series [2] (setting [8]) turned out to be 0.2 µM.

For `CNC(=O)c1ccc(-n2c(N[C@H](C)c3cnccn3)nc3c(c2=O)C[C@@H](C)N(C(=O)c2ccc(Cl)c(C(F)(F)F)c2)C3)cc1` (single isomer, unassigned) [Compound C665a], the CC50 at 3 days in series [3] (setting [11]) was > 50 µM. Moreover, the EC50 in series [2] (setting [8]) turned out to be 0.49 µM.
